Source: patent US20150185241A1, “Tilidine Immunodetection” (Randox Laboratories Limited, priority 2013, published 2015)
Counter-ions that a name gives are not always drawn.

Key:
[1] = system: tilidine-specific antibody raised from Immunogen-II; experiment: Competitive ELISA (Example 8): different Ig fraction of antiserum raised to Immunogen II, hapten-HRP conjugate of Example 6 as detecting agent; assay type: binding; settings: for % cross-reactivity: relative to tilidine HCl = 100; for % cross-reactivity / IC50: different Ig fraction (Example 8); for IC50: standard concentration which produces 50% B/Bo
Description: The wells of an enhanced binding 96 well polystyrene microtitre plate were coated with a different Ig fraction (to that exemplified in Example 7) of the antiserum raised to Immunogen II (N-(carboxypropyl)nortilidine-BTG—example 5), diluted in 10 mMTris, pH 8.5 (125 μl/well). The appropriate antibody coating dilution was determined using standard ELISA checkerboard techniques. The plate was incubated for 2 hours at 37° C., washed 4 times over 10 minutes with Tris buffered saline, containing Tween 20 (TBST) and tapped dry. Standard solutions of tilidine hydrochloride (a mixture of the two trans isomers—the 1R, 2S and the 1S, 2R trans isomers) and bisnortilidine hydrochloride (a mixture of the two trans isomers—the 1R, 2S and the 1S, 2R trans isomers) were prepared in TBST at 0, 0.313 ng/ml, 0.625 ng/ml, 1.25 ng/ml, 2.5 ng/ml, 5 ng/ml, 10 ng/ml and 20 ng/ml and 50 μl of each was added to the appropriate wells. 75 μl of conjugate of example 6 (hapten-HRP), diluted in Tris buffer (pH7.2) containing EDTA, D-mannitol, sucrose, thimerosal and BSA was added to each of the wells. The appropriate dilution of conjugate was also determined using standard ELISA checkerboard techniques. The plate was incubated at 25° C. for 1 hour. Excess unbound conjugate was removed by washing 6 times over a 10-15 minute period with TBST. 125 μl of tetramethylbenzidine (TMB) substrate solution was added to each well of the plate that was then incubated for 20 minutes in the dark at room temperature. The reaction was terminated by the addition of 125 μl of 0.2M H2SO4 to each well. The absorbance was then measured at 450 nm using a microtitre plate reader.

[2] = system: tilidine-specific antibody raised from Immunogen-II; experiment: Competitive ELISA (Example 7): Ig fraction of antiserum raised to Immunogen II, hapten-HRP conjugate of Example 6 as detecting agent; assay type: binding
Description: The wells of an enhanced binding 96 well polystyrene microtitre plate were coated with the Ig fraction of the antiserum raised to Immunogen II (N-(carboxypropyl)nortilidine-BTG—example 5), diluted in 10 mMTris, pH 8.5 (125 μl/well). The appropriate antibody coating dilution was determined using standard ELISA checkerboard techniques. The plate was incubated for 2 hours at 37° C., washed 4 times over 10 minutes with Tris buffered saline, containing Tween 20 (TBST) and tapped dry. Standard solutions of tilidine hydrochloride (a mixture of the two trans isomers—the 1R, 2S and the 1S, 2R trans isomers) and nortilidine hydrochloride (a mixture of the two trans isomers—the 1R, 2S and the 1S, 2R trans isomers) were prepared in TBST at 0, 0.625 ng/ml, 1.25 ng/ml, 2.5 ng/ml, 5 ng/ml, 10 ng/ml, 20 ng/ml and 40 ng/ml and 50 μl of each was added to the appropriate wells. 75 μl of conjugate of example 6 (hapten-HRP), diluted in Tris buffer (pH7.2) containing EDTA, D-mannitol, sucrose, thimerosal and BSA was added to each of the wells. The appropriate dilution of conjugate was also determined using standard ELISA checkerboard techniques. The plate was incubated at 25° C. for 1 hour. Excess unbound conjugate was removed by washing 6 times over a 10-15 minute period with TBST. 125 μl of tetramethylbenzidine (TMB) substrate solution was added to each well of the plate that was then incubated for 20 minutes in the dark at room temperature. The reaction was terminated by the addition of 125 μl of 0.2M H2SO4 to each well. The absorbance was then measured at 450 nm using a microtitre plate reader.

Row | Compound | % cross-reactivity [1] [%] | % B/Bo ([1]; standard 0.313 ng/ml) [%] | % B/Bo ([1]; standard 0.625 ng/ml) [%] | % B/Bo ([1]; standard 1.250 ng/ml) [%] | % B/Bo ([1]; standard 2.500 ng/ml) [%] | % B/Bo ([1]; standard 5.000 ng/ml) [%] | % B/Bo ([1]; standard 10.000 ng/ml) [%] | % B/Bo ([1]; standard 20.000 ng/ml) [%] | IC50 [1] [ng/mL] | % cross-reactivity ([2]; relative to tilidine HCl = 100, Ig fraction of Example 7) [%] | % B/Bo ([2]; standard 0.625 ng/ml) [%] | % B/Bo ([2]; standard 1.250 ng/ml) [%] | % B/Bo ([2]; standard 2.500 ng/ml) [%] | % B/Bo ([2]; standard 5.000 ng/ml) [%] | % B/Bo ([2]; standard 10.000 ng/ml) [%] | % B/Bo ([2]; standard 20.000 ng/ml) [%] | % B/Bo ([2]; standard 40.000 ng/ml) [%] | IC50 ([2]; standard concentration which produces 50% B/Bo, Ig fraction of Example 7) [ng/mL]
1 | CCOC(=O)[C@]1(c2ccccc2)CCC=C[C@H]1N(C)C (racemic) [Tilidine HCl, (±)-trans-ethyl 2-(N,N-dimethylamino)-1-phenylcyclohex-3-enylcarboxylate] | 100 | 70 | 63 | 52 | 41 | 31 | 21 | 14 | 1.473 | 100 | 63 | 55 | 46 | 37 | 28 | 20 | 14 | 1.820
2 | (±)-trans-ethyl 2-amino-1-phenylcyclohex-3-enylcarboxylate [Bisnortilidine HCl] | 14.73 | 86 | 82 | 76 | 68 | 59 | 50 | 39 | 10.0 |  |  |  |  |  |  |  |  | 
